For one assay, the system named is IL-4. The experiment in a line: Cytokine suppression using whole human blood: IL-4 (CytoStim and CD28 antibody stimulus). The following applies: read-out: IL-4 Inhibitory Activity, Human Whole Blood (Test Example 3). The class given is cell-based. As for the experimental part: The test compound dissolved in dimethyl sulfoxide was added to a 96-well plate, and RPMI-1640 medium and human peripheral blood containing sodium heparin were added, followed by culture at 37° C. under 5% CO2 for 1 hour. A medium containing only dimethyl sulfoxide instead of the test compound was added to the control well. […]
After collecting the culture supernatant after culturing, the amount of each cytokine was measured by the sandwich ELISA method. […]
The measurement results obtained by measuring the TNFα inhibitory activity and IL-5 inhibitory activity (50% inhibitory concentration) of the test compounds by the above method were evaluated in accordance with the following evaluated basis; A: less than 100 nM, B: 100 nM or more and less than 500 nM, and C: 500 nM or more. In addition, the measurement results obtained by measuring the IL-17A inhibitory activity and IL-4 inhibitory activity (50% inhibitory concentration) of the test compounds were evaluated in accordance with the following evaluated basis; A: less than 500 nM, B: 500 nM or more and less than 5000 nM, and C: 5000 nM or more.

The test system of assay [1] is SU-DHL-4 (blood cancer (lymphoma)). Briefly: Antitumor activity: growth inhibition of SU-DHL-4. The class given is cell-based. The conditions noted are these: Homo sapiens, 120 h; SU-DHL-4, culturing for 5 days; read-out: 50% growth inhibitory concentration. The protocol:
As antitumor activity, 50% growth inhibitory concentration of various cancer cells (CEM-C1 (blood cancer (leukemia)), SU-DHL-4 (blood cancer (lymphoma)), A549 (lung cancer), HCT-116 (colorectal cancer), and Daoy (brain tumor)) was calculated as follows. First, each of the above cancer cells was seeded on a 384-well plate and cultured overnight at 37° C. under 5% CO2. After that, the test compound was added at various concentrations on the next day, and each number of cells was measured after culturing for 5 days. The 50% growth inhibitory concentration was defined as the test compound concentration at which the number of cells measured is an intermediate value between the number of cells after culture for 5 days under the same conditions without the addition of the test compound and the number of cells at the time of seeding (before the start of culture). The measurement results obtained by measuring the 50% growth inhibitory concentration of the test compound by the above method were evaluated in accordance with the following evaluated basis; A: less than 10 μM, B: 10 μM or more and less than 50 μM, and C: 50 μM or more. As a result of using apremilast as the test compound, the evaluation was C in all cancer cells. On the other hand, as a result of using the compound obtained in Example 248 as the test compound, the evaluation was A in all cancer cells.

Assay [2] has as its system histamine-induced vascular hyperpermeability, Crl:CD1 (ICR) mice. The experiment in a line: Histamine-induced mouse vascular hyperpermeability model. The class given is in vivo. The following applies: 10 mg/kg orally, histamine intradermally. The protocol: Evaluation was carried out using male Crl:CD1 (ICR) mice (6 to 7 weeks of age). First, before conducting the test, the hair on the back of the mice was shaved with a small hair clipper under isoflurane anesthesia (an appropriate amount of about 3% with an inhalation isoflurane anesthesia machine). Next, the mice were orally administered with 10 mg/kg (10 mL/kg) of the test compound dissolved or suspended in 0.5% w/v methylcellulose (0.5% MC), and intravenously administered with 0.4% Evans blue saline (10 mL/kg) after 1 to 4 hours, and approximately 2 minutes later, 15 mM histamine saline was intradermally administered to the dorsal neck as a vascular hyperpermeability substance (20 μL/site). […] The absorption value (620/670 nm) of the supernatant after centrifugation was measured with a plate reader, and the average absorption value of the blank group was subtracted therefrom. Using the resultant as the absorption value of each tissue lysate, the vascular permeability suppression rate was calculated by the following formula. […]
The measurement results obtained by measuring the vascular permeability suppression rate of the test compound by the above method were evaluated in accordance with the following evaluated basis; A: 90% or more, B: 80% or more and less than 90%, and C: less than 80%. […]

Turning to `CC(C)(O)C(F)(F)Oc1ccc(-c2nccs2)c2oc(N3CC4CC(C3)N4)nc12` [Example 248, 1-((2-(3,6-Diazabicyclo[3.1.1]heptan-3-yl)-7-(thiazol-2-yl)benzo[d]oxazol-4-yl)oxy)-1,1-difluoro-2-methylpropan-2-ol], the IC50 in the assay on IL-4 was less than 0.5 µM; in assay [1], less than 10 µM. In addition, in assay [2], the “vascular permeability suppression rate” value was “A (A: 90% or more)”.
For the compound `CCOc1cc([C@@H](CS(C)(=O)=O)N2C(=O)c3cccc(NC(C)=O)c3C2=O)ccc1OC` [apremilast, reference compound], the IC50 is not below 5 µM in the assay with IL-4 and not below 50 µM in assay [1]. Besides, the “vascular permeability suppression rate” value in assay [2] is “C (C: less than 80%)”.
